Measured values: PubChem BioAssay AID2060606 (Molecular Pharmacology Branch, DTP, NCI, 2025)

System: 922993-354-T-J3-PDC complex spheroids, viability, % test/control
Test: Anticancer human tumor 922993-354-T-J3-PDC patient-derived endometrial carcinoma cell line growth inhibition [CLK]
Settings: for IC50: curve of first compound; for viability, T/C: stronger effect = lower value
Summary of the method: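 Patient-derived tumor cells grown as complex spheroids with HUVEC endothelial cells and mesenchymal stem cells, treated with drug combinations. Concentrations descend in half-log steps from near clinical Cmax, or from 10 microM if Cmax unknown.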

[1] = second compound 0.0316 µM, first compound 0.0316 µM
[2] = second compound 0.0316 µM, first compound 0.1 µM
[3] = second compound 0.0316 µM, first compound 0.316 µM
[4] = second compound 0.0316 µM, first compound 1 µM
[5] = second compound 0.0316 µM, first compound 3.16 µM
[6] = second compound 0.0316 µM, first compound 10 µM
[7] = second compound 0.1 µM, first compound 0.0316 µM
[8] = second compound 0.1 µM, first compound 0.1 µM
[9] = second compound 0.1 µM, first compound 0.316 µM
[10] = second compound 0.1 µM, first compound 1 µM
[11] = second compound 0.1 µM, first compound 3.16 µM
[12] = second compound 0.1 µM, first compound 10 µM
[13] = second compound 0.316 µM, first compound 0.0316 µM
[14] = second compound 0.316 µM, first compound 0.1 µM
[15] = second compound 0.316 µM, first compound 0.316 µM
[16] = second compound 0.316 µM, first compound 1 µM
[17] = second compound 0.316 µM, first compound 3.16 µM
[18] = second compound 0.316 µM, first compound 10 µM
[19] = second compound 1 µM, first compound 0.0316 µM
[20] = second compound 1 µM, first compound 0.1 µM
[21] = second compound 1 µM, first compound 0.316 µM
[22] = second compound 1 µM, first compound 1 µM
[23] = second compound 1 µM, first compound 3.16 µM
[24] = second compound 1 µM, first compound 10 µM
[25] = second compound 3.16 µM, first compound 0.0316 µM
[26] = second compound 3.16 µM, first compound 0.1 µM
[27] = second compound 3.16 µM, first compound 0.316 µM
[28] = second compound 3.16 µM, first compound 1 µM
[29] = second compound 3.16 µM, first compound 3.16 µM
[30] = second compound 3.16 µM, first compound 10 µM
[31] = second compound 10 µM, first compound 0.0316 µM
[32] = second compound 10 µM, first compound 0.1 µM
[33] = second compound 10 µM, first compound 0.316 µM
[34] = second compound 10 µM, first compound 1 µM
[35] = second compound 10 µM, first compound 3.16 µM
[36] = second compound 10 µM, first compound 10 µM
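Note: spheroids exposed to the agents for 7 days before readout.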

With `COc1ccc([C@@H](O)c2cc(-c3ncnc4cc(N5CCOCC5)ccc34)c(F)cc2Cl)nn1` + CNC(=O)c1ccc(Nc2nc(OC3CCCC3)c3c(-c4ccc5nc(C)oc5c4)c[nH]c3n2)c(OC)c1 the IC50 (second compound 0.0316 µM) was > 10 µM, the IC50 (second compound 0.1 µM) was > 10 µM and the IC50 (second compound 0.316 µM) was > 10 µM. For the same molecule, the IC50 (second compound 1 µM) was < 0.0316 µM, the IC50 (second compound 3.16 µM) was < 0.0316 µM and the IC50 (second compound 10 µM) was < 0.0316 µM. It also gave a viability, T/C [1] of 113%, a viability, T/C [2] of 112% and a viability, T/C [3] of 130%. It also gave a viability, T/C [4] of 121%, a viability, T/C [5] of 113% and a viability, T/C [6] of 91.2%. The viability, T/C [7] was 104%, the viability, T/C [8] was 110% and the viability, T/C [9] was 99.7%. It also gave a viability, T/C [10] of 125%, a viability, T/C [11] of 104% and a viability, T/C [12] of 92.5%. The viability, T/C [13] was 64.3%, the viability, T/C [14] was 64.5% and the viability, T/C [15] was 66.6%. For the same molecule, the viability, T/C [16] was 67.8%, the viability, T/C [17] was 87.1% and the viability, T/C [18] was 71.9%. It also gave a viability, T/C [19] of 39.3%, a viability, T/C [20] of 40.6% and a viability, T/C [21] of 40%. For the same molecule, the viability, T/C [22] was 40.9%, the viability, T/C [23] was 52.1% and the viability, T/C [24] was 56.8%. The viability, T/C [25] was 31.8%, the viability, T/C [26] was 28.8% and the viability, T/C [27] was 34.8%. It also gave a viability, T/C [28] of 41.2%, a viability, T/C [29] of 45.8% and a viability, T/C [30] of 41%. It also gave a viability, T/C [31] of 34%, a viability, T/C [32] of 30.6% and a viability, T/C [33] of 41.6%. The viability, T/C [34] was 33.8%, the viability, T/C [35] was 44.2% and the viability, T/C [36] was 37.1%.
With `COc1cccc2c1C(=O)c1c(O)c3c(c(O)c1C2=O)CC(O)(C(=O)CO)CC3OC1CC(N)C(O)C(C)O1` (centres undefined) + CNC(=O)c1ccc(Nc2nc(OC3CCCC3)c3c(-c4ccc5nc(C)oc5c4)c[nH]c3n2)c(OC)c1 the IC50 (second compound 0.0316 µM) was 3.13 µM, the IC50 (second compound 0.1 µM) was 3.77 µM and the IC50 (second compound 0.316 µM) was 1.89 µM. For the same molecule, the IC50 (second compound 1 µM) was < 0.0316 µM, the IC50 (second compound 3.16 µM) was < 0.0316 µM and the IC50 (second compound 10 µM) was < 0.0316 µM. For the same molecule, the viability, T/C [1] was 101%, the viability, T/C [2] was 116% and the viability, T/C [3] was 102%. The viability, T/C [4] was 78%, the viability, T/C [5] was 52.3% and the viability, T/C [6] was 22.1%. The viability, T/C [7] was 122%, the viability, T/C [8] was 123% and the viability, T/C [9] was 108%. The viability, T/C [10] was 85.7%, the viability, T/C [11] was 57% and the viability, T/C [12] was 18.7%. It also gave a viability, T/C [13] of 77%, a viability, T/C [14] of 63% and a viability, T/C [15] of 66.6%. For the same molecule, the viability, T/C [16] was 71.3%, the viability, T/C [17] was 34.3% and the viability, T/C [18] was 17.5%. It also gave a viability, T/C [19] of 43.1%, a viability, T/C [20] of 44.3% and a viability, T/C [21] of 22.2%. It also gave a viability, T/C [22] of 23.5%, a viability, T/C [23] of 25.9% and a viability, T/C [24] of 3.3%. The viability, T/C [25] was 36.8%, the viability, T/C [26] was 21.1% and the viability, T/C [27] was 18.2%. It also gave a viability, T/C [28] of 21.7%, a viability, T/C [29] of 10.2% and a viability, T/C [30] of 0.97%. The viability, T/C [31] was 27.5%, the viability, T/C [32] was 12.8% and the viability, T/C [33] was 16.8%. The viability, T/C [34] was 24.5%, the viability, T/C [35] was 3.31% and the viability, T/C [36] was 1.92%.
